What all share (assay type): in vivo
Data set [1] has as its system Winter barley. The experiment in a line: Safener test after spraying, variant a: plant damage. The protocol: (§1) To produce a suitable preparation of active compound, 1 part by weight of active compound is mixed with the stated amounts of solvent and emulsifier, and the concentrate is diluted with tap water to the desired concentration. The desired amount of safener (in the case of mefenpyr-diethyl as WP 20) is mixed into the water used for dilution. Furthermore, 2 g of ai/l of rapeseed oil methyl ester 500 EW are added. Leaves of winter barley at the 2-leaf stage which are infested by the bird cherry-oat aphid (Rhopalosiphum padi) are treated with the desired active compound and safener concentrations using a spray boom, the water application rate being 300 l/ha. Per variant, the test is carried out at least twice. Evaluation is carried out after 7 d and/or 14 d by assessing the plant damage in %, where both the treated plant and new growth and the kill of the grain aphids in % compared to the untreated control are evaluated. 100% damage means that the plant has died, and 0% means no damage. 100% effect on the grain aphids means that all aphids have been killed; 0% means that none of the aphids have been killed.

The test system of data set [2] is cotton aphid (Aphis gossypii). The experiment in a line: Aphis gossypii test (spray application). Particulars: cotton plants. The source says: (§2) The expected activity of a given combination of two active compounds can be calculated according to S. R. Colby, Weeds 15 (1967), 20-22 as follows:
(§3) if • X is the kill rate when employing active compound A at an application rate of m g/ha or in a concentration of m ppm, • Y is the kill rate when employing active compound B at an application rate of n g/ha or in a concentration of n ppm and • E is the kill rate when using the active compounds A and B at application rates of m and n g/ha or in a concentration of m and n ppm, then
(§4) If the actual activity exceeds the calculated value, the activity of the combination is superadditive, i.e. a synergistic effect is present. In this case, the actually observed kill rate must exceed the value calculated using the above formula for the expected kill rate (E).
(§5) To prepare a suitable application solution, 1 part by weight of formulation is mixed with the appropriate amount of water and the adjuvant and the concentrate is diluted with water to the desired concentration.
Cotton plants (Gossypium herbaceum) which are heavily infested by the cotton aphid (Aphis gossypii) are sprayed to runoff point with the desired concentration of the application solution.
(§6) After the desired period of time, the kill in % is determined. 100% means that all aphids have been killed; 0% means that none of the aphids have been killed. The determined kill rates are entered in Colby's formula.

Data set [3] has as its system Winter barley. The experiment in a line: Safener test after spraying, variant b: plant damage. The protocol:
as §1
(§7) In variant b), the active compound is applied as an SC formulation in the desired concentrations as in variant a) in a mixture with mefenpyr-diethyl WP 20 and 2 g of ai/l rapeseed oil methyl ester 500 EW. Practice and evaluation is carried out as stated in variant a).

Data set [4] has as its system bird cherry-oat aphid (Rhopalosiphum padi). As to the kind of experiment: Safener test after spraying, variant b: kill of aphids on winter barley. Particulars: spray. The protocol:
as §1, §7

Data set [5] has the same test system. The experiment in a line: Safener test after spraying, variant a: kill of aphids on winter barley. The note with it: spray. The protocol: as §1
Data set [6] concerns green peach-aphid (Myzus persicae). As to the kind of experiment: Myzus persicae test (spray application). The note with it: bell pepper plants.
Text: as §2, §3, §4, §5
Bell pepper plants (Capsicum sativum) which are heavily infested by the green peach-aphid (Myzus persicae) are sprayed to runoff point with the desired concentration of the application solution.
as §6

In data set [7] the test system is grain aphids (Metopolophium dirhodum). As to the kind of experiment: Metopolophium dirhodum test (spray application). Particulars: barley plants.
Text: as §2, §3, §4, §5
Barley plants (Hordeum vulgare) which are heavily infested by a grain aphids (Metopolophium dirhodum) are sprayed to runoff point with the desired concentration of the application solution.
as §6

The subject of the next data set is Maize. The experiment in a line: Greenhouse trial with safener after seed dressing (seed trays), maize. Particulars: evaluation after 14 d. The protocol:
In an agate mortar, the amount of safener and the amount of active compound required to prepare a 20 WS formulation are dissolved in acetone, and the appropriate amount of formulation without active compounds (which is actually used to prepare Gaucho 70 WS) is added. The mixture is allowed to dry until only a small amount of residual moisture can be detected. Using a spatula, the substance is carefully detached from the side of the mortar, and the substance is comminuted in the mortar until it has dried. An amount of the laboratory formulation thus prepared which is appropriate for the amount of seed to be dressed is filled into beakers of a size big enough so that, during dressing, they are at most one third filled with seed. A sufficient amount of water (depending on the properties of the seed surface) is then added. The seed is then filled into these beakers containing formulation and water and dressed on a test tube shaker with the aid of a spatula or glass rod. Once the formulation is distributed on the seed as uniformly as possible, the seed is allowed to dry in a fume hood. 3 l trays made of plastic (20×20×5 cm) are filled with sandy loam. Using a punch, the soil is firmed such that the deposition depth required for the crop in question is achieved. 20 seeds/seed tray are placed at regular intervals with the aid of a pair of tweezers impressed into the soil using the abovementioned punch. The test containers are placed in a greenhouse and, using the punch, the surface is once again firmed gently. In addition to the test substances, an untreated control is tested, too. Per variant, there are at least 2 trays. The trays are watered and covered with a film until the plants have emerged. After emergence, the trays are watered 2 times a day. Evaluation is carried out by counting the plants that have emerged and by assessing damage, (in %) over an interval of 5-14 days after sowing in comparison to the untreated control.

The test system of a further data set is Summer barley. The experiment in a line: Greenhouse trial with safener after seed dressing (seed trays), summer barley. Particulars: evaluation after 14 d. The protocol: (§8) In an agate mortar, the amount of safener and the amount of active compound required to prepare a 20 WS formulation are dissolved in acetone, and the appropriate amount of formulation without active compounds (which is actually used to prepare Gaucho 70 WS) is added. The mixture is allowed to dry until only a small amount of residual moisture can be detected. Using a spatula, the substance is carefully detached from the side of the mortar, and the substance is comminuted in the mortar until it has dried. An amount of the laboratory formulation thus prepared which is appropriate for the amount of seed to be dressed is filled into beakers of a size big enough so that, during dressing, they are at most one third filled with seed. A sufficient amount of water (depending on the properties of the seed surface) is then added. The seed is then filled into these beakers containing formulation and water and dressed on a test tube shaker with the aid of a spatula or glass rod. Once the formulation is distributed on the seed as uniformly as possible, the seed is allowed to dry in a fume hood.
(§9) 3 l trays made of plastic (20×20×5 cm) are filled with sandy loam. Using a punch, the soil is firmed such that the deposition depth required for the crop in question is achieved. 20 seeds/seed tray are placed at regular intervals with the aid of a pair of tweezers impressed into the soil using the abovementioned punch. The test containers are placed in a greenhouse and, using the punch, the surface is once again firmed gently. In addition to the test substances, an untreated control is tested, too. Per variant, there are at least 2 trays. The trays are watered and covered with a film until the plants have emerged. After emergence, the trays are watered 2 times a day. Evaluation is carried out by counting the plants that have emerged and by assessing damage, (in %) over an interval of 5-14 days after sowing in comparison to the untreated control.

The subject of data set [8] is Winter barley. The experiment in a line: Greenhouse trial with safener after seed dressing (seed trays), winter barley. Particulars: evaluation after 14 d. On the procedure: as §8, §9
The mark [9] stands for this setting: variant a, spray, 200 g of ai/ha.
Setting [10] is: variant b, spray, 200 g of ai/ha.
The mark [11] stands for this setting: variant b, spray, 200 g of ai/ha, 14 d.

For the molecule `COC1CCC2(CC1)NC(=O)C(Cl)(c1c(C)cc(Br)cc1C)C2=O` (centres unmarked) [Example I-1-2], the “Damage (%) 7 d” value with Winter barley [1] (winter barley, in vivo) stood at 40%; in the data set with Winter barley [3] (winter barley, in vivo), 40%. Moreover, the “Damage to new growth (%) 7 d” value with Winter barley [1] (winter barley, in vivo) is 70%; in the data set with Winter barley [3] (winter barley, in vivo), 100%. Further, the “Damage (%) 14 d” value with Winter barley [1] (winter barley, in vivo) is 50%; with Winter barley [3] (winter barley, in vivo, 14 d), 60%. For the same molecule, the “Damage to new growth (%) 14 d” value with Winter barley [1] (winter barley, in vivo) was found to be 80%. In addition, the “Kill rate in % after 3 d” value in data set [2] (20 ppm) is 0%. Moreover, the figures for the “Kill (%) 7 d” value in [4] (8 g of ai/ha), in data set [4] (40 g of ai/ha) and in data set [5] (40 g of ai/ha) were 73%, 100% and 100%, respectively. Moreover, the “Kill (%) 14 d” value was 33% in [4] (8 g of ai/ha), 70% in data set [4] (40 g of ai/ha) and 78% in data set [5] (40 g of ai/ha). Moreover, the “Kill rate in % after 7 d” value worked out at 25% in [6] (20 ppm) and 45% in data set [7] (20 ppm).

As to `Clc1cc(Cl)nc(-c2ccccc2)n1` [Fenclorim a.i., 4,6-dichloro-2-phenylpyrimidine], in data set [2] (100 ppm), the “Kill rate in % after 3 d” value is recorded as 0% and the “Kill rate in % after 7 d” value stood at 0%. Further, the “Kill rate in % after 7 d” value in data set [6] (100 ppm) is 0%.

In the case of `CCOC(=O)C1=NOC(c2ccccc2)(c2ccccc2)C1` [Isoxadifen-ethyl, ethyl 4,5-dihydro-5,5-diphenyl-3-isoxazolecarboxylate], in the data set on Maize (1 g of ai/kg of seed), the “% damage” value is reported as 0% and the “plants that have emerged in %” value stood at 96%.

Turning to `CCCCCC(C)OC(=O)COc1ccc(Cl)c2cccnc12` (centres unmarked) [Cloquintocet-mexyl a.i., 1-methylhexyl 5-chloroquinolin-8-oxyacetate], the “Kill rate in % after 7 d” value in [7] (100 ppm) is listed as 0%.

In the case of `CC1(C)OC(c2ccco2)CN1C(=O)C(Cl)Cl` (centres unmarked) [Furilazole a.i., 3-dichloroacetyl-5-(2-furanyl)-2,2-dimethyloxazolidine], the “Kill rate in % after 3 d” value in [2] (100 ppm) was 0%. Also, the “Kill rate in % after 7 d” value in data set [6] (100 ppm) and in data set [7] (100 ppm) was 0% throughout.

In the case of `C=CCN(CC=C)C(=O)C(Cl)Cl` [Dichlormid a.i., 2,2-dichloro-N,N-di-2-propenylacetamide], the “Kill rate in % after 7 d” value in [2] (100 ppm) and in [6] (100 ppm) was 0% each time.

For the molecule `Cc1cc(Cl)cc(C)c1C1(Cl)C(=O)NC2(CCOCC2)C1=O` (centres unmarked) [Example I-1-1], the entries for the “% damage” value with Maize (2 g of ai/kg of seed), with Summer barley (2 g of ai/kg of seed) and in the data set on Winter barley [8] (2 g of ai/kg of seed) were 95%, 100% and 100%, respectively. Moreover, the “plants that have emerged in %” value with Maize (2 g of ai/kg of seed) amounted to 71%; in the data set on Summer barley (2 g of ai/kg of seed), 0%; in the data set with Winter barley [8] (2 g of ai/kg of seed), 0%. The “Kill rate in % after 7 d” value in data set [2] (20 ppm) worked out at 20%.

As to `CCOC(=O)C1=NN(c2ccc(Cl)cc2Cl)C(C)(C(=O)OCC)C1` (centres unmarked) [Mefenpyr-diethyl, diethyl 1-(2,4-dichlorophenyl)-4,5-dihydro-5-methyl-1H-pyrazole-3,5-dicarboxylate], in the data set on Winter barley [1] (setting [9]), the “Damage (%) 7 d” value amounted to 0%, the “Damage to new growth (%) 7 d” value was determined as 0%, the “Damage (%) 14 d” value stood at 0% and the “Damage to new growth (%) 14 d” value came out at 0%. In addition, in the data set with Winter barley [3] (setting [10]), the “Damage (%) 7 d” value is reported as 0% and the “Damage to new growth (%) 7 d” value is 0%. For the same molecule, in the data set with Winter barley [3] (setting [11]), the “Damage (%) 14 d” value stood at 0% and the “Damage to new growth (%) 14 d” value stood at 0%. For the same molecule, in data set [4] (200 g of ai/ha), the “Kill (%) 7 d” value came out at 0% and the “Kill (%) 14 d” value is given as 0%. Also, in the data set with Summer barley (1 g of ai/kg of seed), the “% damage” value was 0% and the “plants that have emerged in %” value is recorded as 75%. In data set [5] (200 g of ai/ha), the “Kill (%) 7 d” value is listed as 0% and the “Kill (%) 14 d” value amounted to 0%. Further, in the data set with Winter barley [8] (1 g of ai/kg of seed), the “% damage” value is given as 0% and the “plants that have emerged in %” value stood at 83%.

The values above are taken from patent US20080200499A1, “Selective Insecticides and/or Acaricides Based on Substituted Cyclic Dicarbonyl Compounds and Safeners” (priority 2004, published 2008).
